# Measurements published in patent US9206137B2, “N-Aryl pyrazole(thio)carboxamides” (BAYER INTELLECTUAL PROPERTY GMBH, priority 2010, dated 2015).
# Test system: Sphaerotheca fuliginea
# Assay: Sphaerotheca test (cucumber)/preventive
# Assay type: in vivo
# Conditions: preventive
# Source text: One day after this treatment, the plants are inoculated with an aqueous spore suspension of Sphaerotheca fuliginea.
smiles,measurement,setting,value
"Cc1ccccc1-c1ccccc1NC(=O)c1c(C(F)F)nn(C)c1F [102 from WO-2007/006806, 3-(difluoromethyl)-5-fluoro-1-methyl-N-(2′-methylbiphenyl-2-yl)-1H-pyrazole-4-carboxamide]",efficacy,"Table A, dose 500 ppm",20%
same,efficacy,"500 ppm of active ingredient, evaluated 7 days after inoculation",less than 20%
